Laboratory results published in ChEMBL document CHEMBL5107996, “Design and evaluation of achiral, non-atropisomeric 4-(aminomethyl)phthalazin-1(2H)-one derivatives as novel PRMT5/MTA inhibitors” (Bioorg Med Chem, 2022).

Assays:
[1] = molecular target: T1, Protein arginine N-methyltransferase 5 (Homo sapiens, UniProt O14744); experiment: Inhibition of PRMT5 methyltransferase activity in human HCT-116 cells expressing wild type MTAP assessed as inhibition of PRMT5-mediated SDMA modification level incubated for 96 hrs by In-cell Western analysis; format: cell-based
T1 sequence (O14744 whole entry): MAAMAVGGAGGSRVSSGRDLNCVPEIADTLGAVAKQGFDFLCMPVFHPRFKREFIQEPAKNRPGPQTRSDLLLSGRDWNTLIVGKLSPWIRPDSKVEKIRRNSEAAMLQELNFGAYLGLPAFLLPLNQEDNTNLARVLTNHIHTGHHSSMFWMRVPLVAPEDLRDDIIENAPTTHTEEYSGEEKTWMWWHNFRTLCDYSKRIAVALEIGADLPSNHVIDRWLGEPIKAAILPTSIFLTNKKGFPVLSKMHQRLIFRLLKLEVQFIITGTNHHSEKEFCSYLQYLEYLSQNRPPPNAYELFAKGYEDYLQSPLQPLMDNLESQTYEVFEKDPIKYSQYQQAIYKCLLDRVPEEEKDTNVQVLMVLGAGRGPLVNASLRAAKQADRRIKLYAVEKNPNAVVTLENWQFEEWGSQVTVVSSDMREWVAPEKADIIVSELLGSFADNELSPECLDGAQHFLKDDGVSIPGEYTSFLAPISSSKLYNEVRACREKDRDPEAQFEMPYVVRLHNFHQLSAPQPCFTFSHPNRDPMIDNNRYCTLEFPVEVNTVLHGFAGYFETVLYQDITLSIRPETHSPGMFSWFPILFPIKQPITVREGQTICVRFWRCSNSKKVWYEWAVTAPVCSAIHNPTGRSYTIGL

[2] = Ratio IC50 for antiproliferative activity against human HCT-116 cells expressing wild type MTAP to IC50 for antiproliferative activity against MTAP knockout human HCT-116 cells
[3] = molecular target: T1, Protein arginine N-methyltransferase 5; experiment: Inhibition of PRMT5 methyltransferase activity in MTAP knockout human HCT-116 cells assessed as inhibition of PRMT5-mediated SDMA modification level incubated for 96 hrs by In-cell Western analysis; format: cell-based
HCT-116 [4] = experiment: Antiproliferative activity against human HCT-116 cells expressing wild type MTAP assessed as cell viability after 10 days by CellTiter-Glo assay; format: functional, cell-based; conditions: HCT-116, 240 h
[5] = Metabolic stability in human hepatocytes assessed as intrinsic clearance; format: ADME, cell-based, Hepatocyte; conditions: read-out: CLH
HCT-116 [6] = experiment: Antiproliferative activity against MTAP knockout human HCT-116 cells assessed as cell viability after 10 days by CellTiter-Glo assay; format: functional, cell-based; conditions: HCT-116, 240 h
HepG2 = experiment: Antiproliferative activity against human HepG2 cells assessed as inhibition of cell viability measured after 120 hrs CellTiter-Glo assay; format: functional, cell-based; conditions: HepG2, 120 h
[7] = molecular target: T1, Protein arginine N-methyltransferase 5; experiment: Inhibition of PRMT5 (unknown origin) using H2A and 3H-SAM as substrates preincubated for 20 mins followed by substrate addition incubated for 60 mins in presence of MTA by radiometric HotSpot assay

SMILES	IC50 [1] [nM]	Ratio IC50 [2]	IC50 [3] [nM]	IC50 (HCT-116 [4]) [nM]	CLint scaled [5] [mL/min/kg]	IC50 (HCT-116 [6]) [nM]	IC50 (HepG2) [nM]	IC50 [7] [nM]
Cn1ncc(-c2cc(C(F)F)c3c(=O)[nH]nc(CN)c3c2)c1-c1sc2ccccc2c1C#N	759	55	25	2030	44	37		
COCc1cc(-c2cnn(C)c2-c2sc3ccccc3c2C#N)cc2c(CN)n[nH]c(=O)c12	267	3	5	51	66	19	490	
Cn1ncc(-c2cc([C@@H]3CCCO3)c3c(=O)[nH]nc(CN)c3c2)c1-c1sc2ccccc2c1C#N	> 1000	3	390	2050	43	711		
Cn1ncc(-c2cnc3c(=O)[nH]nc(CN)c3c2)c1-c1sc2ccccc2c1C#N						3510		1350
Cn1ncc(-c2ccc3c(=O)[nH]nc(CN)c3c2)c1-c1sc2cnccc2c1C#N						1470		223
Cn1ncc(-c2ccc3c(=O)[nH]nc(CN)c3c2)c1-c1sc2ccccc2c1C#N	> 1000	100					18300	37
Cn1ncc(-c2cc([C@H]3CCCO3)c3c(=O)[nH]nc(CN)c3c2)c1-c1sc2ccccc2c1C#N	174	2	4	29	39	16	290	
CCOc1cc(-c2cnn(C)c2-c2sc3ccccc3c2C#N)cc2c(CN)n[nH]c(=O)c12	618	4	112	637	< 18	150		
Cn1ncc(-c2ccc3c(=O)[nH]nc(CN)c3c2)c1-c1sc2ccncc2c1C#N						2940		768
Cn1ncc(-c2ccc3c(=O)[nH]nc(CN)c3c2)c1-c1sc2ncccc2c1C#N						315		99
Cn1ncc(-c2cc(O)c3c(=O)[nH]nc(CN)c3c2)c1-c1sc2ccccc2c1C#N	> 1000	23	262	4350	< 18	188		
Cn1ncc(-c2ccc3c(=O)[nH]nc(CN)c3c2)c1-c1sc2cccnc2c1C#N						1540		650
Cn1ncc(-c2cc(Cl)c3c(=O)[nH]nc(CN)c3c2)c1-c1sc2ccccc2c1C#N	> 1000	14	17	734	71	52		
Cn1ncc(-c2ccc3c(=O)[nH]nc(CN)c3n2)c1-c1sc2ccccc2c1C#N						250		
Cc1cc(-c2cnn(C)c2-c2sc3ccccc3c2C#N)cc2c(CN)n[nH]c(=O)c12	> 1000	49	17	1470	27	30		
Cn1ncc(-c2ccc3c(=O)[nH]nc(CN)c3c2)c1-c1c(F)c(Cl)cc(OC2CC2)c1C#N					< 18		6600	
